From paper PMC11022890 (Drug Metabolism and Disposition, 2021)

Key:
UGT2B7 = target: T1, UGT2B7 (Homo sapiens, UniProt P16662); format: in vitro ADME; conditions: rUGT2B7 microsomes
T1 sequence (P16662 24-529): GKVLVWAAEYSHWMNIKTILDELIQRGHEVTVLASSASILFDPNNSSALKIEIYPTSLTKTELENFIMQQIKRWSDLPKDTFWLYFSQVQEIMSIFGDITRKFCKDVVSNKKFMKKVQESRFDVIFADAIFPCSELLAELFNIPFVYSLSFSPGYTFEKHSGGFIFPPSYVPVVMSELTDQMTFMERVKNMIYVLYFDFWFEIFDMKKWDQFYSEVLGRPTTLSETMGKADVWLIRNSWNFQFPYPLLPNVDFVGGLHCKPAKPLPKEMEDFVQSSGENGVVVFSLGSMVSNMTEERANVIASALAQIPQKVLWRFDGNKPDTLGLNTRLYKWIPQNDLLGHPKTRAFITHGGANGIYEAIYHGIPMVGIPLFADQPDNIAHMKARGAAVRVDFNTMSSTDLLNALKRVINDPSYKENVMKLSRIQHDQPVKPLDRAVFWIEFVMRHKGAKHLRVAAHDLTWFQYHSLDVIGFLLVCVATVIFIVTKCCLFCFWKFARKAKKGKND

UGT1A9 [1] = target: T2, UGT1A9 (Homo sapiens, UniProt O60656); test: Inhibition of propofol glucuronidation in rUGT1A9 microsomes; format: in vitro ADME
T2 sequence (O60656 26-530): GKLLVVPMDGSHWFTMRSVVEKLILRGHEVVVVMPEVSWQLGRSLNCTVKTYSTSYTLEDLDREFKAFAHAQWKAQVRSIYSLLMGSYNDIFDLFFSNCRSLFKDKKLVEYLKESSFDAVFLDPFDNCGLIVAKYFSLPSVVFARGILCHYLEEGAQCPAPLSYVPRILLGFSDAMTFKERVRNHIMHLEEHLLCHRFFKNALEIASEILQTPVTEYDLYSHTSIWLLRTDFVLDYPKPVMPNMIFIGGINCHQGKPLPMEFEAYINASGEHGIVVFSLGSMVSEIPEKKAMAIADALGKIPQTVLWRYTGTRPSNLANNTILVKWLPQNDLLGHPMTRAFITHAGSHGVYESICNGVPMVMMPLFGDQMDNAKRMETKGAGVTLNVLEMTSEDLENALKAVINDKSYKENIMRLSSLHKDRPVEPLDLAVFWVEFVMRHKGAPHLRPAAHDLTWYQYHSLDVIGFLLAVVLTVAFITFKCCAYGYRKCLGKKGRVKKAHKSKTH

UGT1A9 [2] = target: T2, UGT1A9; test: Inhibition of furosemide glucuronidation in rUGT1A9 microsomes; format: in vitro ADME
UGT1A3 = target: T3, UGT1A3 (Homo sapiens, UniProt P35503); format: in vitro ADME; conditions: rUGT1A3 microsomes; 10 or 100 µM
T3 sequence (P35503 29-534): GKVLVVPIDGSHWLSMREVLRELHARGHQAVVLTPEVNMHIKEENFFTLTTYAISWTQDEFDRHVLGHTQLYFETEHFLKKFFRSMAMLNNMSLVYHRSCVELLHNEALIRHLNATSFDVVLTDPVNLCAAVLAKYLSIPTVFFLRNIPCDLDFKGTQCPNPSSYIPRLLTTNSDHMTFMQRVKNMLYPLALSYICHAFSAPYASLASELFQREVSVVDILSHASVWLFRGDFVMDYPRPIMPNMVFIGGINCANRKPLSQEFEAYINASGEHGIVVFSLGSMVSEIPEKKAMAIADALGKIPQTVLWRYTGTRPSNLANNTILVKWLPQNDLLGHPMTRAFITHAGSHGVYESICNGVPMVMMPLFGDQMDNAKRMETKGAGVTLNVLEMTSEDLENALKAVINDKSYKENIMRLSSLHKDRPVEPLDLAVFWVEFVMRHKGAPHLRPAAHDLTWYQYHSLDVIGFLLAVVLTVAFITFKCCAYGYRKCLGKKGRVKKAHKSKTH

UGT1A4 = target: T4, UGT1A4 (Homo sapiens, UniProt P22310); test: Screening: inhibition of trifluoperazine glucuronidation in rUGT1A4 microsomes; format: in vitro ADME; conditions: 10 or 100 µM
T4 sequence (P22310 29-534): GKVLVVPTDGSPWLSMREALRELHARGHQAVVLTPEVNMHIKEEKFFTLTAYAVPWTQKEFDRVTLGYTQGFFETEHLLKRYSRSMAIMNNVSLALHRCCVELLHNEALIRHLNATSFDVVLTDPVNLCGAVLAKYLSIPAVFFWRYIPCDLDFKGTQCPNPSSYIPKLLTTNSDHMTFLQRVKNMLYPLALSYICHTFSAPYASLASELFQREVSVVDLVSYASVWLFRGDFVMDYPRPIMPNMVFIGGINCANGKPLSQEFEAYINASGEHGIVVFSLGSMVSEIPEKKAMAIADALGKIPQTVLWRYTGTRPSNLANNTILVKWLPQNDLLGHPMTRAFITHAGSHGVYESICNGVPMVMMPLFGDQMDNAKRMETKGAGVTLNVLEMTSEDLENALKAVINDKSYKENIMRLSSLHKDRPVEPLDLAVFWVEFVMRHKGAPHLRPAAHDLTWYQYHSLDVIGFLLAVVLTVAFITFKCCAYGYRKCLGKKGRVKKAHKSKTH

[3] = target: T5, UGT1A9 in human liver microsomes (Homo sapiens, UniProt O60656); test: biochemical; conditions: HLM
T5 sequence (O60656 26-530): T2 sequence (O60656 26-530)

[4] = target: T6, UGT1A9 in human kidney microsomes (Homo sapiens, UniProt O60656); test: Inhibition of furosemide glucuronidation; conditions: HKM
T6 sequence (O60656 26-530): T2 sequence (O60656 26-530)

[5] = IC50,u (binding-corrected IC50), probe substrate propofol
[6] = IC50, probe substrate furosemide
[7] = IC50,u (binding-corrected IC50), probe substrate furosemide

Structure (SMILES)	inhibition vs control without cannabinoid (UGT2B7; 10 µM, zidovudine, screening) [%]	inhibition vs control without cannabinoid (UGT1A9 [1]; 10 µM, propofol, screening) [%]	IC50 (UGT1A9 [1]; IC50, probe substrate propofol) [nM]	IC50 (UGT1A9 [1]; [5]) [nM]	IC50 (UGT1A9 [2]; [6]) [nM]	IC50 (UGT1A9 [2]; [7]) [nM]	inhibition in screening (in words) (UGT1A3)	inhibition in screening (in words) (UGT1A4)	IC50 ([3]; IC50, probe substrate propofol) [nM]	IC50 [3, 5] [nM]	IC50 [4, 6] [nM]	IC50 [4, 7] [nM]	inhibition in screening (in words) (UGT2B7; 10 or 100 µM)	inhibition in screening (in words) (UGT1A9 [1]; 10 or 100 µM)
C=C(C)[C@@H]1CCC(C)=C[C@H]1c1c(O)cc(CCCCC)cc1O [CBD, cannabidiol]	58	91	3200 ± 520	120 ± 20	2400 ± 660	90 ± 25	no significant inhibition	no significant inhibition	19000 ± 4600	1000 ± 240	3600 ± 800	220 ± 49		
CCCCCc1cc(O)c2c(c1)OC(C)(C)c1ccc(C)cc1-2 [CBN, cannabinol]			6000 ± 750	510 ± 63	9200 ± 2100	780 ± 180	no significant inhibition	no significant inhibition	31000 ± 4100	2900 ± 380	15000 ± 770	1900 ± 92	significant inhibition	significant inhibition
